Measured values from patent US6752929B1, “Methods of separating FTC isomers and derivatives thereof” (Johnson Matthey Pharmaceutical Materials, Inc., priority 1999, dated 2004).

Assay: Solubility of cis-FTC Ester in various solvent systems
Format: physicochemical
Conditions: 100% ethyl acetate, 20° C.
Experimental: Therefore, the solubility of the FTC ester in several solvent systems was determined.

In the case of `CCCC(=O)OC[C@@H]1O[C@H](n2cc(F)c(N)nc2=O)CS1` (relative stereo) [cis-FTC Ester, cis-{5-(4-amino-5-fluoro-2-oxo-1(2H)-pyrimidinyl)-1,3-oxathiolan-2-yl}methyl butanoate], the Solubility was 3.03%??.
